Reference: ChEMBL document CHEMBL1201862, “PubChem BioAssay data set” (2004)
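Step 1: Grow cells in 96-well plates. Step 2: Expose to compound for 48 hours at 5 concentrations. Step 3: Interpolate endpoints linearly; if unreached, use highest concentration. GI50 = concentration required for 50% inhibition of growth.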 The source made the active and inactive calls. Cut-off read from the data, not from the text of the source: active = GI50 up to about 1.1 µM and inactive = higher.

What was measured:
Experiment in all cases: NCI anticancer screen, dose series, 48 h
MCF7 = system: MCF7
SK-MEL-2 = system: SK-MEL-2
SF-539 = system: SF-539
RXF 393 = system: RXF 393
HL-60 = system: HL-60
SK-MEL-28 = system: SK-MEL-28
HOP-62 = system: HOP-62
OVCAR-3 = system: OVCAR-3
NCI-H522 = system: NCI-H522
Malme-3M = system: Malme-3M
U-251 = system: U-251
MDA-MB-435 = system: MDA-MB-435
UACC-62 = system: UACC-62
T47D = system: T47D
SF-295 = system: SF-295
ACHN = system: ACHN
NCI-H226 = system: NCI-H226
SR = system: SR
HCC 2998 = system: HCC 2998
OVCAR-4 = system: OVCAR-4

Structure (SMILES)	GI50 (MCF7)	GI50 (SK-MEL-2)	GI50 (SF-539)	GI50 (RXF 393)	GI50 (HL-60)	GI50 (SK-MEL-28)	GI50 (HOP-62)	GI50 (OVCAR-3)	GI50 (NCI-H522)	GI50 (Malme-3M)	GI50 (U-251)	GI50 (MDA-MB-435)	GI50 (UACC-62)	GI50 (T47D)	GI50 (SF-295)	GI50 (ACHN)	GI50 (NCI-H226)	GI50 (SR)	GI50 (HCC 2998)	GI50 (OVCAR-4)
Nc1ccc(-c2nc3ccccc3s2)cc1C(F)(F)F	1.52 µM (inactive)	17.2 µM (inactive)	18.7 µM (inactive)	9.08 µM (inactive)	12.5 µM (inactive)	17.3 µM (inactive)	15.4 µM (inactive)	16.4 µM (inactive)	16.8 µM (inactive)	15.8 µM (inactive)	15 µM (inactive)	16.5 µM (inactive)	16.9 µM (inactive)	5.31 µM (inactive)	17.4 µM (inactive)	15.2 µM (inactive)	–	–	–	–
O=C(c1ccc(Cl)cc1)N(C(=S)OCc1ccccn1)c1ccccc1	46.3 µM (inactive)	> 100 µM (inactive)	33 µM (inactive)	23.5 µM (inactive)	28.8 µM (inactive)	> 100 µM (inactive)	16.6 µM (inactive)	52.7 µM (inactive)	–	61.1 µM (inactive)	53.6 µM (inactive)	> 100 µM (inactive)	> 100 µM (inactive)	29.3 µM (inactive)	76.6 µM (inactive)	70.6 µM (inactive)	33.7 µM (inactive)	> 100 µM (inactive)	–	–
O=C(c1ccc(Cl)cc1Cl)N(C(=O)N1CCC(c2ccccc2)CC1)c1ccccc1	72.4 µM (inactive)	> 100 µM (inactive)	> 100 µM (inactive)	–	–	> 100 µM (inactive)	> 100 µM (inactive)	> 100 µM (inactive)	–	–	> 100 µM (inactive)	55 µM (inactive)	79.4 µM (inactive)	53.7 µM (inactive)	> 100 µM (inactive)	> 100 µM (inactive)	> 100 µM (inactive)	24.3 µM (inactive)	> 100 µM (inactive)	–
Cc1cnc2nc(-c3ccc(Cl)cc3)cc(O)c2c1	4.48 µM (inactive)	5.82 µM (inactive)	2.37 µM (inactive)	–	1.87 µM (inactive)	> 22.9 µM (inactive)	5.86 µM (inactive)	2.95 µM (inactive)	5.47 µM (inactive)	8.61 µM (inactive)	3.9 µM (inactive)	0.47 µM (active)	5.5 µM (inactive)	43 µM (inactive)	3.55 µM (inactive)	6.21 µM (inactive)	13.2 µM (inactive)	0.598 µM (active)	11.4 µM (inactive)	19.1 µM (inactive)
COc1ccc(NC(=O)C(=O)C(CC2C(=O)NC(=S)NC2=O)C(=O)c2ccc3ccccc3c2)c([N+](=O)[O-])c1 (stereo not given)	> 100 µM (inactive)	> 100 µM (inactive)	> 100 µM (inactive)	–	> 100 µM (inactive)	> 100 µM (inactive)	–	> 100 µM (inactive)	> 100 µM (inactive)	–	> 100 µM (inactive)	> 100 µM (inactive)	> 100 µM (inactive)	> 100 µM (inactive)	> 100 µM (inactive)	> 100 µM (inactive)	> 100 µM (inactive)	–	> 100 µM (inactive)	> 100 µM (inactive)
O=C(NCCCCCCNC(=O)c1cccc2ccccc12)Nc1cccc2ccccc12	> 100 µM (inactive)	> 100 µM (inactive)	> 100 µM (inactive)	> 100 µM (inactive)	> 100 µM (inactive)	> 100 µM (inactive)	> 100 µM (inactive)	> 100 µM (inactive)	> 100 µM (inactive)	> 100 µM (inactive)	> 100 µM (inactive)	> 100 µM (inactive)	> 100 µM (inactive)	> 100 µM (inactive)	> 100 µM (inactive)	> 100 µM (inactive)	–	–	> 100 µM (inactive)	> 100 µM (inactive)
COc1cc(C2c3cc4c(cc3OC(Nc3ccccc3)C2C)OCO4)cc(OC)c1O (stereo not given)	4.47 µM (inactive)	2.22 µM (inactive)	2.84 µM (inactive)	4.45 µM (inactive)	1.92 µM (inactive)	5.57 µM (inactive)	–	4.47 µM (inactive)	2.35 µM (inactive)	5.47 µM (inactive)	3.95 µM (inactive)	0.394 µM (active)	3.66 µM (inactive)	15.8 µM (inactive)	4.28 µM (inactive)	–	19.6 µM (inactive)	–	4.12 µM (inactive)	11.8 µM (inactive)
CC1CC(C)C(O)C(C2CC(CC(=O)NC3CCCCC3)CC(=O)O2)C1 (stereo not given)	> 100 µM (inactive)	–	> 100 µM (inactive)	> 100 µM (inactive)	> 100 µM (inactive)	> 100 µM (inactive)	> 100 µM (inactive)	> 100 µM (inactive)	> 100 µM (inactive)	> 100 µM (inactive)	> 100 µM (inactive)	> 100 µM (inactive)	–	> 100 µM (inactive)	> 100 µM (inactive)	> 100 µM (inactive)	> 100 µM (inactive)	> 100 µM (inactive)	> 100 µM (inactive)	> 100 µM (inactive)
O=C(O)c1ccccc1C(=O)OCC1CCCN2CCCCC12 (stereo not given)	> 100 µM (inactive)	> 100 µM (inactive)	> 100 µM (inactive)	> 100 µM (inactive)	–	> 100 µM (inactive)	> 100 µM (inactive)	> 100 µM (inactive)	–	> 100 µM (inactive)	> 100 µM (inactive)	> 100 µM (inactive)	> 100 µM (inactive)	> 100 µM (inactive)	> 100 µM (inactive)	> 100 µM (inactive)	> 100 µM (inactive)	> 100 µM (inactive)	> 100 µM (inactive)	> 100 µM (inactive)
COc1ccc2c(c1)CCc1c-2n(CCN(C)C)c2ccc(OC)cc12	16.4 µM (inactive)	18.5 µM (inactive)	–	–	–	9.48 µM (inactive)	16.1 µM (inactive)	31 µM (inactive)	10 µM (inactive)	19.7 µM (inactive)	12.1 µM (inactive)	6.32 µM (inactive)	9.42 µM (inactive)	15.5 µM (inactive)	18.3 µM (inactive)	14.2 µM (inactive)	3.03 µM (inactive)	3.95 µM (inactive)	3.09 µM (inactive)	25.4 µM (inactive)
NC(Cc1cccc([N+](=O)[O-])c1)C(=O)O (stereo not given)	> 100 µM (inactive)	> 100 µM (inactive)	> 100 µM (inactive)	> 100 µM (inactive)	> 100 µM (inactive)	> 100 µM (inactive)	> 100 µM (inactive)	> 100 µM (inactive)	> 100 µM (inactive)	> 100 µM (inactive)	> 100 µM (inactive)	> 100 µM (inactive)	> 100 µM (inactive)	> 100 µM (inactive)	> 100 µM (inactive)	> 100 µM (inactive)	> 100 µM (inactive)	–	> 100 µM (inactive)	> 100 µM (inactive)
N=C(N)N/N=C\c1c(-c2ccccc2)nc2sccn12	–	15.1 µM (inactive)	16.5 µM (inactive)	13.4 µM (inactive)	25.8 µM (inactive)	15.7 µM (inactive)	15.7 µM (inactive)	–	12.1 µM (inactive)	16.3 µM (inactive)	15.2 µM (inactive)	15.6 µM (inactive)	15.9 µM (inactive)	14.3 µM (inactive)	14.7 µM (inactive)	16.9 µM (inactive)	17.6 µM (inactive)	22.4 µM (inactive)	4.54 µM (inactive)	15.8 µM (inactive)
C/C=C(\C)C(=O)O[C@@H]1CC(C)(C)CC2C3=CCC4[C@]56CC[C@](O)(OC5)C(C)(C)C6CC[C@@]4(C)C3(C)CC[C@]21C(=O)O (stereo not given in full)	> 100 µM (inactive)	> 100 µM (inactive)	> 100 µM (inactive)	> 100 µM (inactive)	28.4 µM (inactive)	> 100 µM (inactive)	> 100 µM (inactive)	81.7 µM (inactive)	> 100 µM (inactive)	> 100 µM (inactive)	70.5 µM (inactive)	> 100 µM (inactive)	> 100 µM (inactive)	> 100 µM (inactive)	> 100 µM (inactive)	59.4 µM (inactive)	> 100 µM (inactive)	–	> 100 µM (inactive)	> 100 µM (inactive)
CC1=CC(=O)c2ccccc2C1=O [MENADIONE]	8.34 µM (inactive)	8.3 µM (inactive)	3.61 µM (inactive)	13.4 µM (inactive)	2 µM (inactive)	4.94 µM (inactive)	16.1 µM (inactive)	11.1 µM (inactive)	5.06 µM (inactive)	4.76 µM (inactive)	13.4 µM (inactive)	1.84 µM (inactive)	4.67 µM (inactive)	2.01 µM (inactive)	16.5 µM (inactive)	3.36 µM (inactive)	14.3 µM (inactive)	–	17 µM (inactive)	3.87 µM (inactive)
Cc1ccc(C(=O)N(C(C)C)C(C)C)cc1/N=N/N(C)C	> 100 µM (inactive)	> 100 µM (inactive)	> 95.7 µM (inactive)	–	29.7 µM (inactive)	41.1 µM (inactive)	> 100 µM (inactive)	31.3 µM (inactive)	18.2 µM (inactive)	84.7 µM (inactive)	> 80 µM (inactive)	> 100 µM (inactive)	> 80.5 µM (inactive)	39.4 µM (inactive)	> 86.9 µM (inactive)	> 75.5 µM (inactive)	> 100 µM (inactive)	41.4 µM (inactive)	> 100 µM (inactive)	> 100 µM (inactive)
